# Assay results reported in patent publication US20230278981A1, “DICHLOROPHENOL HSD17B13 INHIBITORS AND USES THEREOF” (INIPHARM, INC., priority 2020, published 2023).
# Biological target: HSD17B13 (Homo sapiens (Human), UniProt Q7Z5P4)
# Experiment: LC/MS estrone detection assay: conversion of estradiol to estrone by HSD17B13
# Type: biochemical
# Details: 4 μM estradiol, 6 mM NAD+, 30 nM HSD17B13 enzyme (E. coli expressed His-tagged), 2 hours at 26.5° C.
# Method: The liquid chromatography/mass spectrometry (LC/MS) estrone detection assay monitors the conversion of estradiol to estrone by HSD17B13. This assay was undertaken in a 96wp format (Eppendorf deep well Plate 96/500) in an 80 μl reaction volume containing: 4 μM of Estradiol (E2; Cayman; Ser. No. 10/006,315), 6 mM NAD+(Sigma; #N0623) and 30 nM HSD17B13 enzyme (in-house; E. coli expressed His-tagged, purified, soluble protein) in a reaction containing […] potassium phosphate buffer pH 7.4, with 0.5% vehicle (DMSO). Reactions were incubated for 2 hours at 26.5° C., and estradiol (E2) conversion to estrone (E1) was quantitated by LC-MS/MS based analyte detection for both E2 and E1 using LCMS grade reagents.
# Reactions were terminated by the addition of two volumes of acetonitrile (MeCN; LCMS grade; CAS #75/05/8) containing deuterated (D4)-E1 used as internal standard (Clear Synth; #CS-T-54273; 500 ng/mL final concentration). Samples were applied to pre-prepared Bond Elut-C18 extraction cartridges (3 mL; Agilent; Ser. No. 12/102,028), washed and eluted in MeCN. Eluates were dried under nitrogen and re-suspended in 60% methanol (LCMS grade methanol; CAS #67/56/1) before submission for analysis. Aqueous linearity for E2 and E1 were included for quantification.
# Analysis of samples was undertaken on a XBridge BEH C18 column (Waters; #186003033) using 0.1% Diethyl Amine in MeCN (mobile phase A; DEA CAS #109-89-7) and 0.1% Diethyl Amine in milli-Q water (mobile phase B) in a 3 min gradient allowing 25% B. Analytes were detected in negative mode using MRM analysis, with E2 having a RT of 1.85 min and E1 having a RT of 2 min. Activity of the enzyme, in the absence of NAD^+, was used to evaluate specificity of conversion. Enzyme activity in the presence of test samples was expressed as a percentage of the uninhibited enzyme activity, and plotted versus inhibitor concentration. Non-linear regression was performed using a four-parameter logistic model and GraphPad Prism software (GraphPad Software, La Jolla, Calif.). All assessments were undertaken in duplicate evaluations and pooled during extraction process and subsequently injected as duplicates for LC-MS/MS analysis.
# Chain of HSD17B13 (Q7Z5P4 20-300): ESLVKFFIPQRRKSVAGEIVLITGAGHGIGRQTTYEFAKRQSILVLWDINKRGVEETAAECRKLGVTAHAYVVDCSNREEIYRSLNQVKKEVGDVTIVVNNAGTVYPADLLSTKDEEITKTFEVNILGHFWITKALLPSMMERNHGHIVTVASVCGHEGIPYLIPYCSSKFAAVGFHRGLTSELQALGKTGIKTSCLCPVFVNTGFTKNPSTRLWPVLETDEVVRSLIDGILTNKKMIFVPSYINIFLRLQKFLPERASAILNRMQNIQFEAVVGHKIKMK
row,IC50 [nM],Compound
1,500 to 1000,"O=C(Nc1ncsc1C(=O)NCC1CCC(F)(F)CC1)c1cc(Cl)c(O)c(Cl)c1 [Example 30, 4-(3,5-dichloro-4-hydroxybenzamido)-N-((4,4-difluorocyclohexyl)methyl) thiazole-5-carboxamide]"
2,100 to 500,"Cc1nsc(NC(=O)c2cc(Cl)c(O)c(Cl)c2)c1C(=O)NCc1ccccc1F [Example 31, 5-(3,5-dichloro-4-hydroxybenzamido)-N-(2-fluorobenzyl)-3-methylisothiazole-4-carboxamide]"
3,≤ 100,"O=C(Nc1scnc1C(=O)NCc1ccccc1OC(F)(F)F)c1cc(Cl)c(O)c(Cl)c1 [Example 32, 5-(3,5-dichloro-4-hydroxybenzamido)-N-(2-(trifluoromethoxy)benzyl)thiazole-4-carboxamide]"
4,100 to 500,"O=C(Nc1scnc1C(=O)NCc1ccccc1F)c1cc(Cl)c(O)c(Cl)c1 [Example 33, 5-(3,5-dichloro-4-hydroxybenzamido)-N-(2-fluorobenzyl)thiazole-4-carboxamide]"
5,≤ 100,"O=C(Nc1scnc1C(=O)NCc1cccc(F)c1)c1cc(Cl)c(O)c(Cl)c1 [Example 34, 5-(3,5-dichloro-4-hydroxybenzamido)-N-(3-fluorobenzyl)thiazole-4-carboxamide]"
6,≤ 100,"COc1ccccc1CCNC(=O)c1sccc1NC(=O)c1cc(Cl)c(O)c(Cl)c1 [Example 35, 3-(3,5-dichloro-4-hydroxybenzamido)-N-(2-methoxyphenethyl)thiophene-2-carboxamide]"
7,100 to 500,"COc1ccccc1CCn1cnc2cccc(NC(=O)c3cc(Cl)c(O)c(Cl)c3)c2c1=O [Example 36, 3,5-dichloro-4-hydroxy-N-(3-(2-methoxyphenethyl)-4-oxo-3,4-dihydroquinazolin-5-yl)benzamide]"
8,≤ 100,"O=C(Nc1cc(Cl)sc1C(=O)NCc1ccccc1OC(F)(F)F)c1cc(Cl)c(O)c(Cl)c1 [Example 37, 5-chloro-3-(3,5-dichloro-4-hydroxybenzamido)-N-(2-(trifluoromethoxy)benzyl) thiophene-2-carboxamide]"
9,100 to 500,"O=C(Nc1sc(Cl)cc1C(=O)NCCc1ccccc1OC(F)(F)F)c1cc(Cl)c(O)c(Cl)c1 [Example 38, 5-chloro-2-(3,5-dichloro-4-hydroxybenzamido)-N-(2-(trifluoromethoxy)phenethyl) thiophene-3-carboxamide]"
10,1000 to 10000,"O=C(Nc1cccc2ncn(Cc3nncs3)c(=O)c12)c1cc(Cl)c(O)c(Cl)c1 [Example 39, N-(3-((1,3,4-thiadiazol-2-yl)methyl)-4-oxo-3,4-dihydroquinazolin-5-yl)-3,5-dichloro-4-hydroxybenzamide]"
11,100 to 500,"O=C(Nc1cccc2ncn(Cc3cccc(C(F)(F)F)c3)c(=O)c12)c1cc(Cl)c(O)c(Cl)n1 [Example 40, 4,6-dichloro-5-hydroxy-N-(4-oxo-3-(3-(trifluoromethyl)benzyl)-3,4-dihydroquinazolin-5-yl)picolinamide]"
12,≤ 100,"C[C@@H](c1cccc(F)c1)n1cnc2cccc(NC(=O)c3cc(Cl)c(O)c(Cl)n3)c2c1=O [Example 41, 4,6-dichloro-N-{3-[(1S)-1-(3-fluorophenyl)ethyl]-4-oxo-3,4-dihydroquinazolin-5-yl}-5-hydroxypyridine-2-carboxamide]"
13,100 to 500,"O=C(Nc1cccc2ncn(Cc3ccc(F)cc3)c(=O)c12)c1cc(Cl)c(O)c(Cl)n1 [Example 42, 4,6-dichloro-N-{3-[(4-fluorophenyl)methyl]-4-oxo-3,4-dihydroquinazolin-5-yl}-5-hydroxypyridine-2-carboxamide]"
14,≤ 100,"O=C(Nc1cccc2ncn(Cc3ccccc3C(F)(F)F)c(=O)c12)c1cc(Cl)c(O)c(Cl)n1 [Example 43, 4,6-dichloro-5-hydroxy-N-(4-oxo-3-(2-(trifluoromethyl)benzyl)-3,4-dihydroquinazolin-5-yl)picolinamide]"
15,≤ 100,"O=C(Nc1cccc2ncn(Cc3ccccc3F)c(=O)c12)c1cc(Cl)c(O)c(Cl)n1 [Example 44, 4,6-dichloro-N-(3-(2-fluorobenzyl)-4-oxo-3,4-dihydroquinazolin-5-yl)-5-hydroxypicolinamide]"
16,1000 to 10000,"CN1CCN(c2ccc(Cn3cnc4cccc(NC(=O)c5cc(Cl)c(O)c(Cl)c5)c4c3=O)cc2)CC1 [Example 45, 3,5-dichloro-4-hydroxy-N-(3-(4-(4-methylpiperazin-1-yl)benzyl)-4-oxo-3,4-dihydroquinazolin-5-yl)benzamide]"

row,IC50 [nM],Compound
1,≤ 100,"C[C@H](c1cccc(F)c1)n1cnc2cccc(NC(=O)c3cc(Cl)c(O)c(Cl)c3)c2c1=O [Example 47, (R)-3,5-dichloro-N-(3-(1-(3-fluorophenyl)ethyl)-4-oxo-3,4-dihydroquinazolin-5-yl)-4-hydroxybenzamide]"
2,100 to 500,"N#Cc1cccc(Cn2cnc3cccc(NC(=O)c4cc(Cl)c(O)c(Cl)c4)c3c2=O)c1 [Example 48, 3,5-dichloro-N-(3-(3-cyanobenzyl)-4-oxo-3,4-dihydroquinazolin-5-yl)-4-hydroxybenzamide]"
3,100 to 500,"O=C(Nc1cccc2ncn(Cc3cccc(OC(F)(F)F)c3)c(=O)c12)c1cc(Cl)c(O)c(Cl)n1 [Example 49, 4,6-dichloro-5-hydroxy-N-(4-oxo-3-(3-(trifluoromethoxy)benzyl)-3,4-dihydroquinazolin-5-yl)picolinamide]"
4,100 to 500,"O=C(Nc1cccc2ncn(Cc3ccc(OC(F)(F)F)cc3)c(=O)c12)c1cc(Cl)c(O)c(Cl)n1 [Example 50, 4,6-dichloro-5-hydroxy-N-(4-oxo-3-(4-(trifluoromethoxy)benzyl)-3,4-dihydroquinazolin-5-yl)picolinamide]"
5,100 to 500,"CS(=O)(=O)c1ccccc1Cn1cnc2cccc(NC(=O)c3cc(Cl)c(O)c(Cl)c3)c2c1=O [Example 51, 3,5-dichloro-4-hydroxy-N-(3-(2-(methylsulfonyl)benzyl)-4-oxo-3,4-dihydroquinazolin-5-yl)benzamide.]"
6,500 to 1000,"CC(C)(C)n1ccc(Cn2cnc3cccc(NC(=O)c4cc(Cl)c(O)c(Cl)c4)c3c2=O)n1 [Example 52, N-(3-((1-(tert-butyl)-1H-pyrazol-3-yl)methyl)-4-oxo-3,4-dihydroquinazolin-5-yl)-3,5-dichloro-4-hydroxybenzamide]"
7,≤ 100,"N#Cc1ccccc1Cn1cnc2cccc(NC(=O)c3cc(Cl)c(O)c(Cl)c3)c2c1=O [Example 53, 3,5-dichloro-N-(3-(2-cyanobenzyl)-4-oxo-3,4-dihydroquinazolin-5-yl)-4-hydroxybenzamide]"
8,1000 to 10000,"O=C(Nc1cccc2ncnc(NCc3ccccc3OC(F)F)c12)c1cc(Cl)c(O)c(Cl)c1 [Example 54, 3,5-dichloro-N-[4-({[2-(difluoromethoxy)phenyl]methyl}amino)quinazolin-5-yl]-4-hydroxybenzamide]"
9,500 to 1000,"Cn1ccc(Cn2cnc3cccc(NC(=O)c4cc(Cl)c(O)c(Cl)c4)c3c2=O)n1 [Example 56, 3,5-dichloro-4-hydroxy-N-{3-[(1-methyl-1H-pyrazol-3-yl)methyl]-4-oxo-3,4-dihydroquinazolin-5-yl}benzamide]"
10,100 to 500,"CC(C)(C)CCn1cnc2cccc(NC(=O)c3cc(Cl)c(O)c(Cl)c3)c2c1=O [Example 57, 3,5-dichloro-N-(3-(3,3-dimethylbutyl)-4-oxo-3,4-dihydroquinazolin-5-yl)-4-hydroxybenzamide]"
11,100 to 500,"O=C(Nc1cccc2ncn(Cc3ccc(OCCO)cc3)c(=O)c12)c1cc(Cl)c(O)c(Cl)c1 [Example 58, 3,5-dichloro-4-hydroxy-N-(3-(4-(2-hydroxyethoxy)benzyl)-4-oxo-3,4-dihydroquinazolin-5-yl)benzamide]"
12,1000 to 10000,"CS(=O)(=O)c1ccc(Cn2cnc3cccc(NC(=O)c4cc(Cl)c(O)c(Cl)c4)c3c2=O)cc1 [Example 59, 3,5-dichloro-4-hydroxy-N-(3-(4-(methylsulfonyl)benzyl)-4-oxo-3,4-dihydroquinazolin-5-yl)benzamide]"
13,500 to 1000,"CS(=O)(=O)c1cccc(Cn2cnc3cccc(NC(=O)c4cc(Cl)c(O)c(Cl)c4)c3c2=O)c1 [Example 60, 3,5-dichloro-4-hydroxy-N-(3-(3-(methylsulfonyl)benzyl)-4-oxo-3,4-dihydroquinazolin-5-yl)benzamide.]"
14,100 to 500,"CC(C)(C)CCn1cnc2cccc(NC(=O)c3cc(Cl)c(O)c(Cl)n3)c2c1=O [Example 61, 4,6-dichloro-N-(3-(3,3-dimethylbutyl)-4-oxo-3,4-dihydroquinazolin-5-yl)-5-hydroxypicolinamide]"
15,100 to 500,"CC(C)(C)n1ccc(Cn2cnc3cccc(NC(=O)c4cc(Cl)c(O)c(Cl)n4)c3c2=O)n1 [Example 62, N-(3-((1-(tert-butyl)-1H-pyrazol-3-yl)methyl)-4-oxo-3,4-dihydroquinazolin-5-yl)-4,6-dichloro-5-hydroxypicolinamide]"
